Experimental data reported in article PMC12040169 (PLOS Biology, 2025).

Experiment: in vitro
Conditions: human, hela cells, % viability

| Structure (SMILES) | viability at 28.5 h, 10 µM | viability at 28.5 h, 10 µM (bulk resorufin, single well) |
| --- | --- | --- |
| COc1ccc2c(c1)nc(SCC(O)c1ccccc1)n2C (stereo not drawn) [CBK262508] | 97.6% | – |
| CC(C)(CNC(=O)c1ccc(=O)n(CC(=O)NC2CCCCC2)c1)c1ccccc1F [CBK285983] | 90.7% | – |
| CN(C)CCn1nc(-c2cccc(-n3cccc3)c2)oc1=O [CBK284002] | 94.2% | – |
| CS(=O)(=O)c1ccc(-c2cnc3[nH]c(=O)n(Cc4cccs4)c3n2)cc1 [CBK064383] | 93.1% | – |
| Oc1ccc(/C=N/c2ccc(O)c(-c3nc4ccccc4s3)c2)cc1O [CBK262473] | 98.9% | – |
| CN(CC(O)CO)C(=O)c1coc(COc2cccc(F)c2)n1 (stereo not drawn) [CBK306854] | 88.5% | – |
| O=C(Nc1ccc2[nH]ccc2c1)c1ccc(OC(F)(F)F)cc1 [CBK159688] | 61.5% | – |
| CC(C)NC(=O)N1CCCC2(C1)NCCc1c2[nH]c2ccccc12 (stereo not drawn) [CBK046952] | 86.7% | – |
| Cc1cc(C)n(CC(=O)N2CCOC(c3ccccc3Cl)C2)n1 (stereo not drawn) [CBK304927] | 91.9% | – |
| COc1cc(-c2ccc(Nc3cccnc3)nc2)cc(OC)c1OC [CBK037704] | 84.6% | – |
| Cc1cc(C)n(C(C)CC(=O)Nc2cccc(OC(C)C)c2)n1 (stereo not drawn) [CBK281538] | 96.5% | – |
| O=C(c1ccc2[nH]ccc2c1)N1CCN(c2ncccn2)CC1 [CBK144500] | 87% | – |
| COc1ccc(CC(=O)NNC(=O)c2ccc(C(C)(C)C)cc2)cc1 [CBK261700] | 92.5% | – |
| CC(C)c1ccc(S(=O)(=O)N2CCN(c3ncnc4c3oc3ccccc34)CC2)cc1 [CBK296936] | 84.9% | – |
| c1ccc2c(Sc3cnccn3)cccc2c1 [CBK085841] | 90.7% | – |
| Cc1ccc(N2CC(c3nnc(N)o3)CC2=O)cc1 (stereo not drawn) [CBK288061] | 93.8% | – |
| Cc1c(OCc2ccccc2)ccc2c1OC1(CCN(C(=O)c3ccsc3)CC1)CC2=O [CBK156445] | 109% | – |
| O=C(CN1CCC(c2ccc(F)cc2)CC1)Nc1nccs1 [CBK283566] | 90% | – |

| Structure (SMILES) | viability at 28.5 h, 10 µM | viability at 28.5 h, 10 µM (bulk resorufin, single well) |
| --- | --- | --- |
| CN(Cc1ccccc1)C(C#N)c1c[nH]c2ccccc12 (stereo not drawn) [CBK087062] | 95.3% | – |
| COC(=O)[C@@H]1Cc2ncn(C(C)C)c2CN1S(=O)(=O)c1ccc(C#N)cc1 [CBK288986] | 84% | – |
| CCn1cc(CN2CCCN(C(=O)c3cc(C)on3)CC2)cn1 [CBK306145] | 88.1% | – |
| CN(C)c1cccc(Nc2cc(-c3cccc([N+](=O)[O-])c3)ncn2)c1 [CBK091012] | 102% | – |
| COc1ccccc1-c1ccc(CN2CCC(NC(C)=O)(c3ccc(F)cc3)CC2)cc1 [CBK286349] | 90% | – |
| CCn1nc2c(C)cc3cc(OC)ccc3n2c1=O [CBK283823] | 74.6% | – |
| CCN1CC2(CCN(Cc3cccc(-c4ccccn4)c3)CC2)CC1=O [CBK307399] | 107% | – |
| Cc1cc(C)n(-c2nc3ccccc3nc2N2CCN(S(=O)(=O)c3ccc(F)c(C)c3)CC2)n1 [CBK268508] | 91.1% | – |
| CSc1nc(NC(=O)c2ccoc2)cc(N2CCNCC2)n1 [CBK050314T] | 88.9% | – |
| CC(C)(C)C(=O)N1CCC(c2[nH]ncc2-c2ccncc2)CC1 [CBK284211] | 88.2% | – |
| OC1(c2cccnc2F)CCN(Cc2cc(F)cc(F)c2)CC1 [CBK285375] | 81.5% | – |
| CN1C(=O)C(CC(=O)NCCCc2ccc(F)cc2)c2ccccc21 (stereo not drawn) [CBK282474] | 106% | – |
| O=S(=O)(NCc1ccccn1)c1ccc(Br)cc1Br [CBK262291] | 93.2% | – |
| Cc1ccc(Cl)cc1-n1cc(-c2ccc(Cl)cc2)nn1 [CBK113045] | 82.4% | – |
| CN(C)CCCNC(=O)c1ccc(/C=N/O)nc1 [CBK288489] | 121% | – |
| CC(=O)N1CCC2(CC1)OCc1cc(-c3ccccc3C(=O)O)ccc1O2 [CBK060975] | – | 92.1% |
| Cc1nn(C)c(C)c1CN(C(=O)C(C)Oc1cccc(F)c1)C1CC1 (stereo not drawn) [CBK281479] | 93.7% | – |
| COc1ccc(-c2oc(C(=O)N(C)C)c(C(=O)O)c2-c2ccc(OC)cc2)cc1 [CBK001958] | 90.5% | – |
